From patent publication US9796962B2, “Method for generating pancreatic hormone-producing cells” (Kyoto University, priority 2013, dated 2017) come the findings set out here.

Assay type in all cases: cell-based
Assay [1] relates to Pancreatic anlages from mice embryos E12.5, E14.5 and E16.5. The assay is described as follows: Differentiation of fetal pancreatic anlages into insulin producing cells (insulin promoter GFP). The conditions noted are these: 10 mM with 4 factors. The method, then: Pancreatic anlages were obtained from mice embryos E12.5, E14.5 and E16.5 that express GFP on the downstream of the insulin promoter. Each pancreatic anlage was cultured in a suspension culture in Improved MEM Zinc Option medium containing 1% B-27 added with forskolin (10 μM), nicotinamide (10 mM), dexamethasone (10 μM), ALK5 inhibitor II (5 μM) and sodium cromoglicate (10 mM) for 4 days.
Further, expression of insulin and Neurog 3 in thus obtained cells were analyzed by PCR and confirmed that the expression of those genes was increased in the cells cultured with sodium cromoglicate (FIG. 7C).

For assay [2], the system named is Human iPS cell line 201B7. The assay is described as follows: Differentiation of 201B7 with 8 days step 3: marker gene PCR, immune staining, insulin amount. The method, then: Human iPS cell line 201B7 was used. The cells were differentiated into insulin producing cells by the following steps. The colonies of the iPS cell line was grown to 80-90% confluence in the culture plate and dissociated from the dish by using CTK solution (Reprocell). The dissociated colonies were then divided into single cells using Accutase™ and seeded in 24 well plates (Greiner) at 2.0×10^5/well.
The cells were cultured in RPMI medium containing 1% B-27 added with activin A (100 ng/ml), CHIR99021 (1 μM) and Y-27632 (10 μM) for 2 days. Then, the cells were further cultured in RPMI medium containing 1% B-27 added with activin A (100 ng/ml) and CHIR99021 (1 μM) for more 3 days (Day 5). During this period, the medium was changed with the same fresh medium on the third (Day 3) and the fourth days (Day 4).
The cells obtained in Step 1 were cultured in improved MEM Zinc Option medium containing 1% B-27 added with dorsomorphin (1 μM), retinoic acid (2 μM), and SB431542 (10 μM) for 6 days (Day 11). During this period, the medium was changed with the same fresh medium every two days.
The cells obtained in Step 2 were cultured in improved MEM Zinc Option medium containing 1% B-27 added with forskolin (10 μM), nicotinamide (10 mM), dexamethasone (10 μM), ALK5 inhibitor II ((2-(3-(6-Methylpyridin-2-yl)-1H-pyrazol-4-yl)-1,5-naphthyridine)) (5 μM) and sodium cromoglicate (10 mM) for more 8 days (Day 19). During this period, the medium was changed with the same fresh medium every four days.
The cells at each step were collected, i.e. on Day 0, Day 5, Day 11 and Day 19, and the expressions of marker genes were determined by PCR (FIG. 5B). In the group where cells were cultured in the presence of sodium cromoglicate in step 3, the expression of NGN3 and GHRE (Ghrelin) were confirmed. The expression of SST (somatostatin) in the group where cells were cultured in the presence of sodium cromoglicate in step 3 was higher than that in the group where cells were cultured in the absence of sodium cromoglicate.
Further, the cells were subjected to immune staining and confirmed the production of proteins corresponding to the marker genes (FIG. 5C). The amount of insulin produced by the cells obtained by culturing the cells in the presence of sodium cromoglicate in step 3 and that produced by the cells obtained by culturing in the absence of sodium cromoglicate were compared, and the amount of insulin produced by the cells obtained with sodium cromoglicate was higher than that produced by the cells obtained without sodium cromoglicate (FIG. 5D).
The cells were subjected to immune staining and the production of pancreatic hormones was confirmed (FIGS. 6A and 6B).

Assay [3] deals with Human iPS cell line 201B7. The assay is described as follows: Differentiation of 201B7 with sodium cromoglicate used solely or with single additives in step 3. The procedure:
Human iPS cell line 201B7 was used. The cells were differentiated into insulin producing cells by the following steps. The colonies of the iPS cell line was grown to approximately 80-90% confluence in the culture plate and dissociated from the plate by using CTK solution (Reprocell). The dissociated colonies were then divided into single cells using Accutase™ and seeded in 24 well plates (Greiner) at 2.0×10^5/well. The cells were cultured in RPMI medium containing 1% B-27 added with activin A (100 ng/ml), CHIR99021 (1 μM) and Y-27632 (10 μM) for 2 days. Then, the cells were further cultured in RPMI medium containing 1% B-27 added with activin A (100 ng/ml) and CHIR99021 (1 μM) for more 3 days (Day 5). During this period, the medium was changed with the same fresh medium on the third (Day 3) and the fourth days (Day 4). The cells obtained in Step 1 were cultured in improved MEM Zinc Option medium containing 1% B-27 added with dorsomorphin (1 μM), retinoic acid (2 μM), and SB431542 (10 μM) for 6 days (Day 11). During this period, the medium was changed with the same fresh medium every two days. The cells obtained in Step 2 were cultured in improved MEM Zinc Option medium containing 1% B-27 added with sodium cromoglicate (10 mM) for more 8 days (Day 19). During this period, the medium was changed with the same fresh medium every four days. The ratio of insulin expression versus β-Actin expression was determined by using quantitative PCR. […] Then, the effect of sodium cromoglicate when used in combination with each of the four additives used in EXAMPLE 4: forskolin (10 μM), nicotinamide (10 mM), dexamethasone (10 μM), and ALK5 inhibitor II (5 μM) was determined.

The mark [4] stands for this setting: PCR, 10 mM in step 3, 8 days, FIG. 5B.
The mark [5] stands for this setting: immune staining, Day 19, FIGS. 6A and 6B.

Where a name gives a salt, the structure may show the parent alone.

In the case of `O=C(O)c1cc(=O)c2c(OCC(O)COc3cccc4oc(C(=O)O)cc(=O)c34)cccc2o1` [sodium cromoglicate, sodium salt of 1,3-Bis(2-carboxychromon-5-yloxy)-2-hydroxypropane], the “ratio of GFP positive cells” value in assay [1] (suspension culture 4 days, E12.5, E14.5, E16.5, FIG. 7B) is recorded as “increased the ratio of GFP positive cells in each embryonic pancreatic anlage”. For the same molecule, in assay [1] (PCR, 4 days, FIG. 7C), the “expression of Neurog 3” value is recorded as “increased” and the expression of insulin entry is “increased”. The “amount of insulin produced by the cells, presence vs absence” value in assay [2] (Day 19, 4Fs plus sodium cromoglicate vs 4Fs, FIG. 5D) is “higher”. In assay [2] (setting [4]), the “expression of GHRE (Ghrelin)” value is on record as “confirmed”; the “expression of NGN3” value is “confirmed”; the “expression of SST (somatostatin), presence vs absence” value is recorded as “higher”. Also, in assay [2] (setting [5]), the expression of glucagon entry was “increased”, the expression of insulin entry is “increased” and the expression of somatostatin result is on record as “increased”. Further, the “expression of insulin in combination with each single additive” value in assay [3] (combined with forskolin (10 μM), nicotinamide (10 mM), dexamethasone (10 μM) or ALK5 inhibitor II (5 μM)) was “confirmed in all 4 combinations, although the amount of the expression was not so high”. Besides, the “effect on the agents' induction of insulin producing cells in combination” value in assay [3] (combined with forskolin, nicotinamide, dexamethasone or ALK5 inhibitor II) was “enhances the effects of all 4 agents”. In addition, the “amount of insulin positive cells” value in assay [3] (immune staining, 10 mM alone in step 3, 8 days, FIG. 8C) is given as “higher”. Besides, in assay [3] (quantitative PCR, 10 mM alone in step 3, 8 days, FIG. 8B), the “ratio of insulin expression versus β-Actin expression, presence vs absence” value is listed as “higher”.
